Assay results as given in ChEMBL document CHEMBL1201862, “PubChem BioAssay data set” (2004).
Active and inactive are the calls of the source.

Assays:
CAAX prenyl protease 2 = target: T1, CAAX prenyl protease 2 (Saccharomyces cerevisiae S288c, UniProt Q03530); type: biochemical
T1 sequence (Q03530 whole entry): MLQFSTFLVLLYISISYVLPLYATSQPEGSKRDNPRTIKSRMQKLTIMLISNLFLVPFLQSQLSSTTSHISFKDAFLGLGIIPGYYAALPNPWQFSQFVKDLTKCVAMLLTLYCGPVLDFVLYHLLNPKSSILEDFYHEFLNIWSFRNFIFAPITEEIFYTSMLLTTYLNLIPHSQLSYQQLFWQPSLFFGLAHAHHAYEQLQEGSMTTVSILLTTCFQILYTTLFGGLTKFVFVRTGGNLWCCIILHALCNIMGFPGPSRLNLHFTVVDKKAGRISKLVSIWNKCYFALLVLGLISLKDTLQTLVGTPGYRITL

[1] = mammalian cell cytotoxicity, dose response, cytotoxicity control, plate reader, cherry-pick samples (AID 504397); type: functional, cell-based
[2] = target: Sphingosine 1-phosphate receptor 2 (Homo sapiens, UniProt O95136); assay: Dose Response Cell Based Assay for Agonists of the S1P2 Receptor. [Related pubchem assays: 729, 736, 843 ]; type: functional
[3] = target: Sphingosine 1-phosphate receptor 1 (Homo sapiens, UniProt P21453); assay: Fluorescence-based counterscreen assay for S1P4 agonists: Cell-based dose response high throughput screening assay to identify agonists of the Sphingosine 1-Phosphate Receptor 1 (S1P1). [Related pubchem assays (depositor defined):AID1509, AID1523, AID1801, AID463107, AID463118, AID463119, AID463122, AID463123, AID463129, AID463225, AID504400, AID504460]; type: functional
[4] = target: Sphingosine 1-phosphate receptor 4 (Homo sapiens, UniProt O95977); assay: Fluorescence dose response cell-based high throughput screening assay for agonists of the Sphingosine 1-Phosphate Receptor 4 (S1P4). [Related pubchem assays: 1509 (Primary screen.), 1523 (Confirmation screen in triplicates.)]; type: functional
[5] = target: T2, Tyrosine-protein phosphatase non-receptor type 7 (Homo sapiens, UniProt P35236); assay: HePTP (PTPN7) phosphatase inhibitor potency, SAR follow-up, biochemical, set 2 (AID 449736); type: functional
T2 sequence (P35236 whole entry): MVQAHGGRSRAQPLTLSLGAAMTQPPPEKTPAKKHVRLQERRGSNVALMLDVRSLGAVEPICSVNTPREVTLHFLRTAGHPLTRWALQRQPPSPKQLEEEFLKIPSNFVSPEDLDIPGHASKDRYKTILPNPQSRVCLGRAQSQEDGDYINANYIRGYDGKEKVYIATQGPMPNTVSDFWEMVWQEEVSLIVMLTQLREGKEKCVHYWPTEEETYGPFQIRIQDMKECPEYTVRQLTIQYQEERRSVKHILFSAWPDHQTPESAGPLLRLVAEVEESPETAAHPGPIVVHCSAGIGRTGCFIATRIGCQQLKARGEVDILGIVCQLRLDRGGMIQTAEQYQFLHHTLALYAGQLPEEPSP

[6] = target: T3, Alkaline phosphatase, tissue-nonspecific isozyme (Homo sapiens, UniProt P05186); assay: TNAP enzyme activators, dose response, selectivity assay for mouse IAP activator project, biochemical, TNAP isozyme, mouse IAP uHTS hits (AID 488880); type: functional
T3 sequence (P05186 whole entry): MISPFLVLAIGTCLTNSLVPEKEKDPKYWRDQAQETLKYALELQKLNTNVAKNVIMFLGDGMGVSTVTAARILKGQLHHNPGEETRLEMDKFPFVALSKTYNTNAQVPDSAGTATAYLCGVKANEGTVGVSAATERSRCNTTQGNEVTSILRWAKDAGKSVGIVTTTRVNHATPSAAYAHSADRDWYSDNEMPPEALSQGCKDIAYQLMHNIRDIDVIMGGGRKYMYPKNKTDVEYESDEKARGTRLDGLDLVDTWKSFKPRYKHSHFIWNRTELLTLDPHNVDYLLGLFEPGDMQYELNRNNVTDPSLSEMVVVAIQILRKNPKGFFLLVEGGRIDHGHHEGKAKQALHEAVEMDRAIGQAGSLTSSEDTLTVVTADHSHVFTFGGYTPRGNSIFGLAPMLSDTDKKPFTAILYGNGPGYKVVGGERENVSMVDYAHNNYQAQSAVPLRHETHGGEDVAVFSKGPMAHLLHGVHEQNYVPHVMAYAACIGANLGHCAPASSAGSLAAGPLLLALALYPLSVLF

[7] = target: Intestinal-type alkaline phosphatase (Mus musculus, UniProt P24822); assay: mouse intestinal alkaline phosphatase activators, dose response, biochemical, luminescence, uHTS hits (AID 488783); type: functional
Fibrinogen beta chain [8] = target: T4, Fibrinogen beta chain (Homo sapiens, UniProt P02675); assay: Fluorescence polarization-based biochemical high throughput dose response assay to identify inhibitors that disrupt the binding of a cyclic peptide (Tn7) to the fibrin proteolytic product D-Dimer and fragment E complex [DD(E )].
[9] = target: T5, Endoribonuclease toxin MazF (Escherichia coli K-12, UniProt P0AE70); assay: fluorescent RNA oligo signal without MazF, dose response, counter-screen for MazEF activator project, biochemical, fluorescence, single-stranded RNase substrate (AID 588502); type: functional
T5 sequence (P0AE70 whole entry): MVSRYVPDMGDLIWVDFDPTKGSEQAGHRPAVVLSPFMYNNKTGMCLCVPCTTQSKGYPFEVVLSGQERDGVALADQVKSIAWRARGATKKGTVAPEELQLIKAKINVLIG

Genome polyprotein = Genome polyprotein (dengue virus type 2, UniProt P29990); assay: Dengue-2 NS5 methyltransferase inhibitors, primary screen, biochemical, confirmation dose response (AID 588689); type: functional
[10] = target: Induced myeloid leukemia cell differentiation protein Mcl-1 (Homo sapiens, UniProt Q07820); type: functional
Fibrinogen beta chain [11] = target: T4, Fibrinogen beta chain; assay: Fluorescence polarization-based biochemical high throughput dose response assay to identify inhibitors that disrupt the binding of a cyclic peptide (Tn6) to the fibrin proteolytic product D-Dimer and fragment E complex [DD(E )].
Major prion protein = Major prion protein (Homo sapiens, UniProt P04156); type: functional, cell-based
[12] = target: Cyclin-dependent kinase 5/CDK5 activator 1 (Homo sapiens, UniProt Q00535); assay: CDK5/p35 kinase inhibitors, dose response, biochemical, cherry-picked samples, set 2 (AID 504545)
[13] = target: Intestinal-type alkaline phosphatase (Homo sapiens, UniProt P09923); assay: activation of human intestinal alkaline phosphatase – biochemical, dose response (AID 488873); type: functional
Large T antigen = Large T antigen (Simian virus 40, UniProt P03070); type: functional, Betapolyomavirus macacae;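 note: Confirmatory-stage PubChem screen for compounds that inhibit SV40 T antigen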
[14] = target: T5, Endoribonuclease toxin MazF; assay: MazF toxin RNase activators, dose response, biochemical, fluorescence, single-stranded RNA substrate, uHTS hits (AID 588481); type: functional
[15] = target: Glucose-6-phosphate 1-dehydrogenase (Homo sapiens, UniProt P11413); assay: human G6PD enzyme inhibitors, dose response, selectivity assay for P. falciparum G6PD inhibitor project, biochemical, fluorescence (AID 504792); type: functional

## Cc1ccc(-c2csc(N3CCN(c4cc5c(cc4Cl)nc(-c4ccncc4)n5CCOCCO)CC3)n2)cc1
CAAX prenyl protease 2
  AC50: 6.2 µM (active)
[1]
  AC50: 231 µM (active)

## Clc1ccc(N2N=C(c3cccs3)CC2c2ccco2)cc1 (stereo not given)
[2]
  EC50: 2.71 µM (active)
[3]
  EC50: 5.98 µM (active)
[4]
  EC50: 9.2 µM (active)

## Cc1ccc(C)c(-n2c(N)c(C(=O)N3CCCCC3)sc2=S)c1
[5]
  IC50: > 100 µM (inactive)

## Oc1cc2c(cc1O)C1c3ccc(O)c(O)c3OCC1(O)C2 (stereo not given) [HAEMATOXYLIN]
[6]
  EC50: 85.7 µM (active)
[7]
  EC50: 62.1 µM (active)
Fibrinogen beta chain [8]
  IC50: > 83.3 µM (inactive)
[9]
  EC50: 72.8 µM (inactive)
cells
  IC50: > 138 µM (inactive)
Genome polyprotein
  IC50: 17.4 µM (active)
[10]
  IC50: 3.44 µM (active)
Fibrinogen beta chain [11]
  IC50: 9.33 µM (active)
Major prion protein
  IC50: 14 µM (inactive)
[12]
  AC50: 17.5 µM (active)
[13]
  EC50: 50 µM (active)
Large T antigen
  IC50: 4.66 µM (active)
[14]
  EC50: 30.1 µM (inactive)
[15]
  IC50: 66.5 µM (inactive)
